Counter-ions that a name gives are not always drawn.
Assay: Dynamic moisture sorption (DMS) analysis of crystalline forms
Type: physicochemical
Settings: for DMS: weight picked up at 90% RH / DMS: increase of weight at about 90% relative humidity: isotherm 25° C.; for Change of crystal form during DMS analysis (in words): high % RH; for DMS: increase of weight at about 90% relative humidity: physical-property summary tables; for Hygroscopicity by DMS (in words): up to 90% RH
Description: Further characterization with respect to hygroscopicity of the crystalline forms can be gauged by, for example, dynamic moisture sorption (DMS). The DMS features reported herein can vary by plus or minus about 5% relative humidity. The DMS features reported herein can also vary by plus or minus about 5% weight change.
Samples are prepared for dynamic moisture-sorption analysis by placing ˜5 mg to ˜20 mg of compound in a tarred sample holder on the VTI balance. The instrument is a dynamic moisture-sorption analyzer, VTI Corporation, SGA-100, equipment #0228. A drying step is run at 40° C. and ˜1% RH for 1 h. The isotherm temperature is 25° C. A % weight change over 10 min (5 weight readings) of dm/dt=0.010 or 2 h, whichever occurs first, is required before continuing to the next step. The water content of the sample equilibrated as described above was determined from 30% RH to 90% RH and then back down to 10% RH.

Row | SMILES | DMS: weight picked up at 90% RH | Change of crystal form during DMS analysis (in words) | DMS: increase of weight at about 90% relative humidity | Hygroscopicity by DMS (in words)
1 | O.O=C(COC[C@H]1CC[C@H](COC(=O)N(c2ccccc2)c2ccc(Cl)cc2)CC1)NCCS(=O)(=O)[O-].O=C(COC[C@H]1CC[C@H](COC(=O)N(c2ccccc2)c2ccc(Cl)cc2)CC1)NCCS(=O)(=O)[O-].[Ca+2] [Compound Ia calcium salt hydrate I, calcium 2-(2-(((1r,4r)-4-(((4-chlorophenyl)(phenyl)carbamoyloxy)methyl)cyclohexyl)methoxy)acetamido)ethanesulfonate hydrate I] | about 7 % by weight | converting to Compound Ia calcium salt hydrate IV | FIG. 17: Increase of 7% weight at about 90% relative humidity | hygroscopic
2 | N=C(N)NCCC[C@H](N)C(=O)O.O.O=C(COC[C@H]1CC[C@H](COC(=O)N(c2ccccc2)c2ccc(Cl)cc2)CC1)NCCS(=O)(=O)O [Compound Ia L-arginine salt hydrate, L-arginine 2-(2-(((1r,4r)-4-(((4-chlorophenyl)(phenyl)carbamoyloxy)methyl)cyclohexyl)methoxy)acetamido)ethanesulfonate hydrate] | about 1 % by weight | – | FIG. 31: Increase of about 1% weight at about 90% relative | slightly hygroscopic
3 | O=C(COC[C@H]1CC[C@H](COC(=O)N(c2ccccc2)c2ccc(Cl)cc2)CC1)NCCS(=O)(=O)O [Compound Ia TRIS salt, 2-(2-(((1r,4r)-4-(((4-Chlorophenyl)(phenyl)carbamoyloxy)methyl)cyclohexyl)methoxy)acetamido)ethanesulfonic Acid] | about 1.2 % by weight | – | – | slightly hygroscopic
4 | O.O=C(COC[C@H]1CC[C@H](COC(=O)N(c2ccccc2)c2ccc(Cl)cc2)CC1)NCCS(=O)(=O)O [Compound Ia free acid hydrate, 2-(2-(((1r,4r)-4-(((4-chlorophenyl)(phenyl)carbamoyloxy)methyl)cyclohexyl)methoxy)acetamido)ethanesulfonic acid hydrate] | over 10 % by weight | form a new hydrate crystal phase at high % RH values | FIG. 3: Increase of about 10% weight at about 90% relative | hygroscopic
5 | O.O=C(COC[C@H]1CC[C@H](COC(=O)N(c2ccccc2)c2ccc(Cl)cc2)CC1)NCCS(=O)(=O)[O-].O=C(COC[C@H]1CC[C@H](COC(=O)N(c2ccccc2)c2ccc(Cl)cc2)CC1)NCCS(=O)(=O)[O-].[Mg+2] [Compound Ia magnesium salt hydrate, magnesium 2-(2-(((1r,4r)-4-(((4-chlorophenyl)(phenyl)carbamoyloxy)methyl)cyclohexyl)methoxy)acetamido)ethanesulfonate hydrate] | 1.2 % by weight | – | FIG. 14: Increase of 1.2% weight at about 90% relative humidity | slightly hygroscopic
6 | O.O=C(COC[C@H]1CC[C@H](COC(=O)N(c2ccccc2)c2ccc(Cl)cc2)CC1)NCCS(=O)(=O)[O-].[K+] [Compound Ia potassium salt hydrate, potassium 2-(2-(((1r,4r)-4-(((4-chlorophenyl)(phenyl)carbamoyloxy)methyl)cyclohexyl)methoxy)acetamido)ethanesulfonate hydrate] | 3-4 % by weight | – | – | slightly hygroscopic

Reference: patent US20120225937A1, “CRYSTALLINE FORMS AND PROCESSES FOR THE PREPARATION OF PG12 RECEPTOR AGONISTS” (Arena Pharmaceuticals, Inc., priority 2009, published 2012)
